# From ChEMBL document CHEMBL5352385, “Marine natural products and their synthetic analogs as promising antibiofilm agents for antibiotics discovery and development” (Eur J Med Chem, 2022)
# Assays:
# [1] = tested on: Staphylococcus aureus; experiment: Antibiofilm activity against methicillin-resistant Staphylococcus aureus CH 10850 at 50 ug/ml relative to control; format: functional; conditions: dose 50 µg/ml
# [2] = tested on: Pseudomonas aeruginosa; experiment: Antibiofilm activity against Pseudomonas aeruginosa assessed as inhibition of biofilm formation at 100 ug/ml incubated for 24 hrs by crystal violet staining based analysis relative to control; format: functional; design: scale not given: the % may be the effect or the level left; conditions: dose 100 µg/ml
# [3] = tested on: Staphylococcus aureus; experiment: Antibiofilm activity against Staphylococcus aureus ATCC 6538 assessed as reduction in biofilm formation at 50 ug/ml measured after 24 hrs by crystal violet staining based analysis relative to control; format: functional; design: scale not given: the % may be the effect or the level left; conditions: dose 50 µg/ml
# [4] = tested on: Staphylococcus epidermidis; experiment: Antibiofilm activity against Staphylococcus epidermidis RP62A; format: functional
# [5] = tested on: Streptococcus mutans; experiment: Antibiofilm activity against Streptococcus mutans UA159 assessed as inhibition of biofilm formation; format: functional, organism-based
# [6] = tested on: Candida albicans; experiment: Antibiofilm activity against Candida albicans assessed as reduction in biofilm formation at 200 ug/ml measured after 48 hrs by crystal violet staining based analysis relative to control; format: functional; design: scale not given: the % may be the effect or the level left; conditions: dose 200 µg/ml
# [7] = Inhibition of quorum sensing system in Pseudomonas aeruginosa PA01 transfected with lasB-gfp
# [8] = Inhibition of quorum sensing system in Pseudomonas aeruginosa PA01 transfected with […]
# [9] = tested on: Marinobacter nauticus; experiment: Antibiofilm activity against Marinobacter hydrocarbonoclasticus at 31.25 ug/ml incubated for 24 hrs by crystal violet staining based analysis relative to control; format: functional; conditions: dose 31.25 µg/ml
# [10] = tested on: Staphylococcus aureus; experiment: Antibiofilm activity against methicillin-resistant Staphylococcus aureus CH 10850 at 100 ug/ml relative to control; format: functional; conditions: dose 100 µg/ml
# [11] = tested on: Staphylococcus aureus; experiment: Antibiofilm activity against Staphylococcus aureus ATCC 6538 at 6.25 ug/ml relative to control; format: functional; conditions: dose 6.25 µg/ml
# [12] = tested on: Staphylococcus epidermidis; experiment: Antibiofilm activity against […] incubated for 24 hrs; format: functional
# [13] = tested on: Micrococcus luteus; experiment: Antibiofilm activity against Micrococcus luteus at 31.25 ug/ml incubated for 48 hrs by crystal violet staining based analysis relative to control; format: functional; conditions: dose 31.25 µg/ml
# [14] = tested on: Pseudooceanicola batsensis; experiment: Antibiofilm activity against Pseudooceanicola-batsensis at 31.25 ug/ml incubated for 48 hrs by crystal violet staining based analysis relative to control; format: functional; conditions: dose 31.25 µg/ml
# [15] = tested on: Staphylococcus aureus; experiment: Antibiofilm activity against Staphylococcus aureus ATCC 25923 after 24 hrs by crystal violet staining based assay; format: functional, organism-based; conditions: ATCC 25923, 24 h
# [16] = tested on: Staphylococcus aureus; experiment: Antibiofilm activity against Staphylococcus aureus ATCC 6538 after 24 hrs by crystal violet staining based assay; format: functional, organism-based; conditions: ATCC 6538, 24 h
# [17] = tested on: Pseudomonas aeruginosa; experiment: Antibiofilm activity against Pseudomonas aeruginosa ATCC 15442 after 24 hrs by crystal violet staining based assay; format: functional, organism-based; conditions: ATCC 15442, 24 h
# [18] = tested on: Staphylococcus aureus; experiment: Antibiofilm activity against Staphylococcus aureus ATCC 6538 at 100 ug/ml incubated for 24 hrs by crystal violet staining based microplate reader method relative to control; format: functional; conditions: dose 100 µg/ml
# [19] = tested on: Pseudomonas aeruginosa; experiment: Antibiofilm activity against Pseudomonas aeruginosa PA01 at 128 ug/ml relative to control; format: functional; conditions: dose 128 µg/ml
# [20] = tested on: Staphylococcus aureus; experiment: Antibiofilm activity against methicillin-resistant Staphylococcus aureus ATCC 6538 at 100 ug/ml incubated for 24 hrs by crystal violet staining based microplate reader method relative to control; format: functional; conditions: dose 100 µg/ml
# [21] = tested on: Streptococcus mutans; experiment: Antibiofilm activity against clinical isolate Streptococcus mutans 2.M7/4 assessed as inhibition of biofilm formation at 31.0 ug/ml relative to control; format: functional; design: scale not given: the % may be the effect or the level left; conditions: dose 31 µg/ml
# [22] = tested on: Streptococcus mutans; experiment: Antibiofilm activity against Streptococcus mutans UA159 assessed as inhibition of biofilm formation at 31.0 ug/ml relative to control; format: functional; design: scale not given: the % may be the effect or the level left; conditions: dose 31 µg/ml
# [23] = tested on: Staphylococcus aureus; experiment: Antibiofilm activity against Staphylococcus aureus ATCC 6538 at 12.5 ug/ml relative to control; format: functional; conditions: dose 12.5 µg/ml
# [24] = tested on: Staphylococcus aureus; experiment: Antibiofilm activity against methicillin-resistant Staphylococcus aureus CH 10850 at 32 ug/ml relative to control; format: functional; conditions: dose 32 µg/ml
smiles,measurement,setting,value
CC(=O)O[C@@H]1O[C@H](OC(C)=O)[C@H]2C(=O)[C@@H]([C@@]3(C)CCCC(C)(C)C3)CC[C@@H]12,Activity,[1],97.7%
CCC(C)C(=O)NCCc1ccccc1 (stereo not drawn),Activity,[2],50.6%
COc1cc(-c2ccccn2)nc2cnsc12,Activity,[3],>50%
CCCCCC1OC1C(O)CCCCCCCCCC(=O)O (stereo not drawn),MBIC,[4],32 µg/mL
Cc1ccc(S(=O)(=O)n2cc3c4c2C(=O)C(NCCc2ccc5c(c2)COC5)=CC4=NCC3)cc1,IC50,[5],0.4 µM
C/C=C/CCCC(C)/C(O)=C1\C(=O)[C@@H](C(C)O)N(C)C1=O (stereo partly drawn),Activity,[6],80%
O=C(NCCSSCCNC(=O)/C(Cc1ccc(O)c(Br)c1)=N/O)/C(Cc1ccc(O)c(Br)c1)=N/O [PSAMMAPLIN A],IC50,[7],30.7 µM
same,IC50,[8],2.64 µM
C=C1CCC(Cl)C(C)(C)C1C[C@@]12OC(C)(C)[C@H](Cl)C[C@]1(Cl)C(=O)c1c(cc(O)c(C)c1O)C2=O (stereo partly drawn),Activity,[9],48.2%
CCC1=C(C=O)[C@H](C(=O)OC)CC[C@@H]1[C@@]1(C)CCCC(C)(C)C1,Activity,[10],90.7%
COC(=O)[C@@]12Oc3ccc(-c4ccc5c(c4O)C(=O)C4=C(O)C[C@H](C)[C@@H](O)[C@]4(C(=O)OC)O5)c(O)c3C(=O)C1=C(O)C[C@H](C)[C@H]2O,Activity,[11],97%
COC(=O)[C@@]12Oc3ccc(-c4ccc5c(c4O)C(=O)C4=C(O)C[C@H](C)[C@H](O)[C@]4(C(=O)OC)O5)c(O)c3C(=O)C1=C(O)C[C@H](C)[C@@H]2O [SECALONIC ACID B],Activity,[11],>90%
Cn1c(-c2nnc(-c3ccc(N)cc3)o2)cc(Br)c1Br,MBIC,[12],3.125 µg/mL
C=C1CCC(Br)C(C)(C)C1C[C@@]12OC(C)(C)[C@H](Cl)C=C1C(=O)c1c(O)cc(O)cc1C2=O (stereo partly drawn),Activity,[13],100%
same,Activity,[14],26.2%
same,Activity,[9],59.3%
CC(=O)OC1OC2OC(=O)[C@H](C)C34OOC([C@@]5(C)CCCC(C)(C)C5)(CC[C@@H]1C23)O4 (stereo partly drawn),Activity,[10],99%
Cc1ccc(S(=O)(=O)n2cc3c4c2C(=O)C(NCc2ccc(Cl)cc2)=CC4=NCC3)cc1,IC50,[5],2.5 µM
COc1cc(-c2ccccn2)nc(/C=N/O)c1[S+](C)[O-] (stereo not drawn),Activity,[3],>80%
COCCn1cc(-c2nc(-c3c[nH]c4ncccc34)cs2)c2cc(Br)ccc21,IC50,[15],1.7 µM
same,IC50,[16],20.7 µM
same,IC50,[17],9.7 µM
CC(C)=CCC/C(C)=C/[C@@H]1CC(C)=C[C@]2(C=C(CO)[C@H]3CC(=O)C(C)=C[C@H]3O2)O1,Activity,[18],>75%
O=C1Nc2cc(Br)ccc2[C@@]1(c1c[nH]c2ccccc12)C1CNc2ccccc21 (stereo partly drawn),Activity,[19],41.76%
CC(C)=CCC/C(C)=C/[C@@H]1CC(C)=C[C@]2(C=C(CO)[C@H]3C[C@@H](O)C(C)=C[C@H]3O2)O1,Activity,[18],>95%
CC(=O)O[C@H]1C[C@@H]2C(CO)=C[C@]3(C=C(C)C[C@@H](/C=C(\C)CCC=C(C)C)O3)O[C@@H]2C=C1C,Activity,[20],50%
COC(=O)[C@H](C)c1c([C@@]2(C)CCCC(C)(C)C2)ccc2c1[C@H](O)OC2=O,Activity,[1],97.8%
Cc1c(O)cc2c(c1O)C(=O)[C@@]1(Cl)C[C@@H](Cl)C(C)(C)O[C@@]1(CC1C(C)(C)C(Cl)CC[C@@]1(C)O)C2=O (stereo partly drawn),Activity,[9],25.1%
CC(=O)O[C@@H]1C[C@@H]2C(CO)=C[C@]3(C=C(C)C[C@@H](/C=C(\C)CCC=C(C)C)O3)O[C@@H]2C=C1C,Activity,[20],50%
CCCCCCC(C)/C(O)=C1\C(=O)[C@H](C(C)O)N(C)C1=O (stereo partly drawn),Activity,[6],80%
COc1cc(-c2ccccn2)nc(C#N)c1SC,Activity,[3],>50%
C=C1CCC(Br)C(C)(C)C1C[C@@]12OC(C)(C)[C@H](Cl)C[C@]1(Cl)C(=O)c1c(O)cc(O)cc1C2=O (stereo partly drawn),Activity,[13],100%
same,Activity,[14],26.2%
same,Activity,[9],59.3%
CC(C)(C)OC(=O)NCCn1cc(-c2nc(-c3c[nH]c4ncccc34)cs2)c2ccccc21,IC50,[15],8.4 µM
same,IC50,[16],11.3 µM
CC(C)=CCC/C(C)=C\C[C@@]12OC(C)(C)[C@H](Cl)C[C@]1(Cl)C(=O)c1c(cc(O)c(C)c1O)C2=O,Activity,[9],28%
COCCn1cc(-c2nc(-c3cn(C)c4ncccc34)cs2)c2cc(F)ccc21,IC50,[15],0.4 µM
same,IC50,[16],51.6 µM
C=C(C)C(=O)CC/C(C)=C\C[C@@]12OC(C)(C)[C@H](Cl)C=C1C(=O)c1c(O)cc(O)cc1C2=O,Activity,[13],87.3%
same,Activity,[9],43.4%
CCCCCCCCC[C@H](CC(=O)NCCCN)N1CC(=O)N[C@@H](Cc2ccccc2)C1=O,Activity,[21],34.8%
same,Activity,[22],90%
C/C=C1/C(=O)/C(=C(/O)C(C)CCCCCC)C(=O)N1C (stereo not drawn) [PENICILLENOL B1],Activity,[6],80%
C[C@H]1C(=O)O[C@@H]2OC[C@@H]3CCC([C@@]4(C)CCCC(C)(C)C4)=C1[C@@H]32,Activity,[10],85.4%
CCCCC/C=C/C(=O)CCCCCCCC(=O)O,MBIC,[4],>128 µg/mL
C=C(C)C(=O)CC/C(C)=C/C[C@@]12OC(C)(C)[C@H](Cl)C[C@]1(Cl)C(=O)c1c(O)cc(O)cc1C2=O,Activity,[13],87.3%
same,Activity,[9],43.4%
Cn1cc(-c2csc(-c3cn(CCN)c4ccc(F)cc34)n2)c2cccnc21,IC50,[15],1.27 µM
same,IC50,[16],13.2 µM
same,IC50,[17],9.9 µM
O=C(OCc1ccccc1)c1ccccc1 [BENZYL BENZOATE],Activity,[2],37.7%
C=C(C)C(O)CC/C(C)=C/C[C@@]12OC(C)(C)[C@H](Cl)C[C@]1(Cl)C(=O)c1c(O)cc(O)cc1C2=O (stereo partly drawn),Activity,[13],97%
same,Activity,[14],13.4%
same,Activity,[9],56.9%
COc1ccc(CCNC2=CC3=NCCc4cn(S(=O)(=O)c5ccc(C)cc5)c(c43)C2=O)cc1,IC50,[5],2 µM
CC(C)=CCC/C(C)=C\C[C@@]12OC(C)(C)[C@H](Cl)C=C1C(=O)c1c(cc(O)c(C)c1O)C2=O,Activity,[9],23.4%
CC(C)=CCC/C(C)=C/[C@@H]1CC(C)=C[C@]2(C=C(CO)[C@H]3C[C@H](O)C(C)=C[C@H]3O2)O1,Activity,[18],>95%
COCCn1cc(-c2csc(-c3cn(C(=O)OC(C)(C)C)c4ccccc34)n2)c2cccnc21,IC50,[15],3.7 µM
same,IC50,[16],14.5 µM
COCCn1cc(-c2nc(-c3cn(C)c4ncccc34)cs2)c2cc(Br)ccc21,IC50,[15],2.03 µM
same,IC50,[16],23.9 µM
same,IC50,[17],9.7 µM
CC(C)=CCC/C(C)=C\C[C@@]12OC(C)(C)[C@H](Cl)C[C@]1(Cl)C(=O)c1c(O)cc(O)cc1C2=O,Activity,[13],88.6%
same,Activity,[14],87.2%
COc1ccc(CNC2=CC3=NCCc4cn(S(=O)(=O)c5ccc(C)cc5)c(c43)C2=O)cc1OC,IC50,[5],2.6 µM
CC1=C2C(=CO[C@H](C)[C@H]2C)C(O)=C(C(=O)O)C1=O [CITRININ],Activity,[23],>50%
COC(=O)[C@H](C)c1c([C@@]2(C)CCCC(C)(C)C2)ccc2c1C(=O)OC2,Activity,[1],99.9%
CCCCC/C=C/C(=O)CCCCCCCCCC(=O)O,MBIC,[4],16 µg/mL
NCC(c1c[nH]c2cc(Br)ccc12)c1c[nH]c2cc(Br)ccc12,Activity,[24],56.3%
C/C(=C/C[C@@]12OC(C)(C)[C@H](Cl)C[C@]1(Cl)C(=O)c1c(O)cc(O)cc1C2=O)CC/C=C(\C)CO,Activity,[9],60.2%
C=C1CCC(Cl)C(C)(C)C1C[C@@]12OC(C)(C)[C@H](Cl)C=C1C(=O)c1c(cc(O)c(C)c1O)C2=O (stereo partly drawn),Activity,[9],33.7%
NCC(c1c[nH]c2cc(F)ccc12)c1c[nH]c2cc(F)ccc12,Activity,[24],61%
CC(=O)OCC1=C[C@]2(C=C(C)C[C@@H](/C=C(\C)CCC=C(C)C)O2)O[C@@H]2C=C(C)C(=O)C[C@H]12,Activity,[20],50%
O=C(NCCSSCCNC(=O)/C(Cc1cc(Br)c(O)c(-c2cc(C/C(=N\O)C(=O)NCCSSCCNC(=O)/C(Cc3ccc(O)c(Br)c3)=N/O)cc(Br)c2O)c1)=N\O)/C(Cc1ccc(O)c(Br)c1)=N\O,IC50,[7],8.53 µM
same,IC50,[8],8.7 µM
CCCCCCCCC[C@H](CC(=O)NCCCCN)N1CC(=O)N[C@@H](Cc2ccccc2)C1=O,Activity,[21],34.8%
same,Activity,[22],90%
